# From patent publication US20220160664A1, “TAZ ACTIVATORS AND WNT AGONISTS FOR TREATING EAR DISORDERS” (Frequency Therapeutics, Inc., priority 2019, published 2022)
# How the values were obtained:
# GSK-3 alpha = GSK-3 alpha (Homo sapiens, UniProt P49840); details: Table 2; kind of potency not given; cited from earlier work
# [1] = system: Lgr5 GFP(+) cochlear progenitor cells; test: Lgr5+ Assay / Stem Cell Proliferation Assay: proliferation and enrichment of Lgr5 GFP(+) cochlear progenitor cells; type: cell-based
# Source text: FIG. 1A is a graph depicting that the TAZ activator IBS008738 enhances Lgr5 GFP(+) progenitor cell proliferation when combined with CHIR in a background of growth factors. The y-axis depicts Lgr5 GFP(+) cell count and the x-axis depicts control conditions (background growth factors plus CHIR (EFI-C) or CHIR and VPA (EFI-CV)) versus CHIR+IBS008738 (EFI-C-IBS).
# The y-axis depicts Lgr5 GFP(+) cell area and the x-axis depicts concentration of FHZ-000706.
# FIG. 4A is a graph depicting that the TAZ activator FHZ-000706 enhances Lgr5 GFP(+) progenitor cell proliferation when combined with CHIR in a background of growth factors compared to CHIR alone.
# The TAZ activator and the Wnt agonist (optionally in combination with an epigenetic agent) is capable of (i) forming a proliferation assay final cell population from a proliferation assay initial cell population over a proliferation assay time period in a stem cell proliferation assay, and/or (ii) forming a differentiation assay final cell population from a differentiation assay initial cell population over a differentiation assay time period in a Stem Cell differentiation assay wherein: (a) the proliferation assay initial cell population has (i) a Proliferation assay initial number of total cells, (ii) a proliferation assay initial number of Lgr5+ cells, (iii) a proliferation assay initial number of hair cells, (iv) a proliferation assay initial Lgr5+ cell fraction that equals the ratio of the proliferation assay initial number of Lgr5+ cells to the proliferation assay initial number of total cells, and (v) a proliferation assay initial hair cell fraction that equals the ratio of the proliferation assay initial number of hair cells to the proliferation assay initial number of total cells; (b) the proliferation assay final cell population has (i) a proliferation assay final number of total cells, (ii) a proliferation assay final number of Lgr5+ cells, (iii) a proliferation assay final number of hair cells, (iv) a proliferation assay final Lgr5+ cell fraction that equals the ratio of the proliferation assay final number of Lgr5+ cells to the proliferation assay final number of total cells and (v) a proliferation assay final hair cell fraction that equals the ratio of the proliferation assay final number of hair cells to the proliferation assay final number of total cells; (c) the differentiation assay initial cell population has (i) a differentiation assay initial number of total cells, (ii) a differentiation assay initial number of Lgr5+ cells, (iii) a differentiation assay initial number of hair cells, (iv) a differentiation assay initial Lgr5+ cell fraction that equals the ratio of the differentiation assay initial number of Lgr5+ cells to the differentiation assay initial number of total cells, and (v) a differentiation assay initial hair cell fraction that equals the ratio of the differentiation assay initial number of hair cells to the differentiation assay initial number of total cells; (d) the differentiation assay final cell population has (i) a differentiation assay final number of total cells, (ii) a differentiation assay final number of Lgr5+ cells, (iii) a differentiation assay final number of hair cells, (iv) a differentiation assay final Lgr5+ cell fraction that equals the ratio of the differentiation assay final number of Lgr5+ cells to the differentiation assay final number of total cells, and (v) a differentiation assay final hair cell fraction that equals the ratio of the differentiation assay final number of hair cells to the differentiation assay final number of total cells; (e) the proliferation assay final number of Lgr5+ cells exceeds the proliferation assay initial number of Lgr5+ cells by a factor of at least 10; and/or (f) the differentiation assay final number of hair cells is a non-zero number.
# [2] = cited from earlier work; for Human In Vivo Conc: Table 8
# [3] = system: cochlear progenitor cells (Lgr5+); test: Lgr5 cell expansion: quantification of cell proliferation, expansion and enrichment (flow cytometry / Celigo imaging); type: cell-based, mice; details: for enrichment of Lgr5+ progenitor cells / proliferation of Lgr5+ progenitor cells: TAZ activator 10 μM combined with Wnt agonist CHIR99021 (4 μM)
# Procedure: Neonatal Lgr5-EGFP-IRES-Cre-ER mice (The Jackson Laboratory, strain 8875) were used to analyze the effects of small molecules on cochlear stem cell expansion (see Barker et al., Nature 449, 1003-7 (2007). This strain allowed for visualization and quantification of EGFP cells.
# All animal studies were conducted under an approved institutional protocol per National Institutes of Health guidelines. Using neonatal animals, cochleae were dissected and the organ of Corti (sensory epithelium) was separated from the stria vascularis (ion transport epithelium) and the modiolus (nerve tissue). Epithelia were then collected and treated with TrypLE for 15-20 minutes to obtain single cells. The cells were then filtered ([…]) and suspended in a Matrigel (Corning) dome for 3D culture seeded at 0.5 cochlea per well.
# Expansion of Lgr5 Cells: Cells were cultured in a 3D system and bathed in a serum free 1:1 mixture of DMEM and F12, supplemented with Glutamax (GIBCO), N2, B27 (Invitrogen), EGF (50 ng/mL; Chemicon), bFGF (50 ng/mL; Chemicon), IGF-1 (50 ng/mL; Chemicon), and small molecules for seven days. Media was changed every other day. Treatments were run in triplicate or quadruplicate.
# Quantification of Cell Proliferation: Lgr5 cells were quantified after 7-10 days. Cell colonies were dissociated into single cells using TrypLE. The cells were then stained with propidium iodide (PI) and analyzed using a flow cytometer to count Lgr5-EGFP cells. The percentage of viable Lgr5 cells was plotted against the concentration in GraphPad Prism.
# Organ of Corti are dissected from Lgr5 GFP(+) mice and dissociated as single cells as described above. Background media contains the same supplements and growth factors at the same concentrations as described above. Assays for image quantification are run in 96 well black plates with clear bottom with cells embedded in 50% Matrigel at cell density of 500 k cells/mL with 50 uL applied to each well. Cells are cultured for 7 days, with media change every 3-4 days. After 7 days of exposure to experimental conditions (e.g. small molecules), media is then removed from culture and replaced with media containing Hoescht at a 1:2000 dilution for a final concentration of 5 ug/mL (200 uL/well). The plate is then placed in a cell culture incubator at 37C for 1 hr. The media containing Hoescht is then removed and 200 uL/well of Cell Recovery Solution is added. The plate is then incubated on a plastic-wrapped (e.g. Saran wrap) CoolRack™ on ice for 80 minutes. Next, the plate is centrifuged for 5 minutes at 2300 RPMs (Beckman Coulter Allegra 6R centrifuge; GH 3.8A plate rotor; ambient temperature). Cells are then imaged on Celigo using 3 channels for brightfield, blue (Hoescht), and green (Lgr5 GFP). Proliferated cell colonies are captured as summed objects in the blue channel and the green channel. The green Lgr5 GFP(+) cell colonies are quantified for total GFP(+) cell area, while the blue hoescht stained colonies are quantified as total cell area. The % GFP(+) Cell Area is calculated using the total GFP(+) cell area divided by the total cell area multiplied by 100. All results are compiled and utilized to determine the effects of experimental conditions (e.g. small molecules) on the expansion and enrichment of the Lgr5 cell population.
# KDM1b = molecular target: T1, KDM1b (Homo sapiens, UniProt Q8NB78); details: Table 9; read-out: Select KDM1b; cited from earlier work
# T1 sequence (Q8NB78 1-822): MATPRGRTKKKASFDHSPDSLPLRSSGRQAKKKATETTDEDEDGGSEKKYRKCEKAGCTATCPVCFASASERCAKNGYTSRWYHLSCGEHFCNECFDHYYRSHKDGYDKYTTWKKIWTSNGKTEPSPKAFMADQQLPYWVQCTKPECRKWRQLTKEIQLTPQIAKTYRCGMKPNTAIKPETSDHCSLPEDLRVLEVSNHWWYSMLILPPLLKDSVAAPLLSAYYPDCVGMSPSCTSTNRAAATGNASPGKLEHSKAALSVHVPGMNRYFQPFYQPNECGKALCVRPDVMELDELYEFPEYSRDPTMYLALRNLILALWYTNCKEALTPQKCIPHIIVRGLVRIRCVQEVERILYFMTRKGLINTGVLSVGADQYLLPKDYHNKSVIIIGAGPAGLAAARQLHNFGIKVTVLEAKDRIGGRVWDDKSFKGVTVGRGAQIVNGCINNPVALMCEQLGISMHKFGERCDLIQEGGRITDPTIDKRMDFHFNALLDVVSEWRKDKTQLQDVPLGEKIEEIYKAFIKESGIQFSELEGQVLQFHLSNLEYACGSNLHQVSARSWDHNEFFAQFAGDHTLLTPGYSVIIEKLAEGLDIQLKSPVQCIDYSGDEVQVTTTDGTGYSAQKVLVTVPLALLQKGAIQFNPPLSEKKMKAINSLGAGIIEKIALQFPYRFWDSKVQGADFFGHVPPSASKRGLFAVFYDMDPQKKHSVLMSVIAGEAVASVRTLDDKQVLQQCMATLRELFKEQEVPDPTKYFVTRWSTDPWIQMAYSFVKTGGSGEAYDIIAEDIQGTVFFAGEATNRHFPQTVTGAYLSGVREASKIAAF
# HDAC = details: cited from earlier work
# DOT1L = DOT1L (Homo sapiens, UniProt Q8TEK3); details: DOT1L inhibitors, Table 8; cited from earlier work
# TAZ = TAZ (Homo sapiens, UniProt Q9GZV5); details: Table 1, TAZ activators, literature cell concentration; cited from earlier work
# [4] = 0-30 μM FHZ-000706 in a background of growth factors
# [5] = 10 μM FHZ-000706 + 4 μM CHIR99021 in growth factors compared to CHIR alone
# [6] = Table 1, TAZ activators, concentration range in the assay
# [7] = TAZ activator alone, FIG. 3A, 3B
# [8] = 10 μM IBS008738 combined with 4 μM CHIR99021 and 1 mM VPA in growth factors versus EFI-C or EFI-CV controls
# Chain of TAZ (Q9GZV5 whole entry): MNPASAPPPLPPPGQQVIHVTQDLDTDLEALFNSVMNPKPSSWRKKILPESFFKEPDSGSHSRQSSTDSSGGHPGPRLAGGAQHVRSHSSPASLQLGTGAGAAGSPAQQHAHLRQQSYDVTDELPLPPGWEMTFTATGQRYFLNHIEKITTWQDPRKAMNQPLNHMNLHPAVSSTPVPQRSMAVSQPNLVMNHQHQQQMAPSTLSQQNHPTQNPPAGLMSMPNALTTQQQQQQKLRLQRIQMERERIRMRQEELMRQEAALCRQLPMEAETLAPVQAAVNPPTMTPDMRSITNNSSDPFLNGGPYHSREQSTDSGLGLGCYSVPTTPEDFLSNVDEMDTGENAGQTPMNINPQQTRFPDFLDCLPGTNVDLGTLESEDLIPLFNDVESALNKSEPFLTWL
# Chain of GSK-3 alpha (P49840 whole entry): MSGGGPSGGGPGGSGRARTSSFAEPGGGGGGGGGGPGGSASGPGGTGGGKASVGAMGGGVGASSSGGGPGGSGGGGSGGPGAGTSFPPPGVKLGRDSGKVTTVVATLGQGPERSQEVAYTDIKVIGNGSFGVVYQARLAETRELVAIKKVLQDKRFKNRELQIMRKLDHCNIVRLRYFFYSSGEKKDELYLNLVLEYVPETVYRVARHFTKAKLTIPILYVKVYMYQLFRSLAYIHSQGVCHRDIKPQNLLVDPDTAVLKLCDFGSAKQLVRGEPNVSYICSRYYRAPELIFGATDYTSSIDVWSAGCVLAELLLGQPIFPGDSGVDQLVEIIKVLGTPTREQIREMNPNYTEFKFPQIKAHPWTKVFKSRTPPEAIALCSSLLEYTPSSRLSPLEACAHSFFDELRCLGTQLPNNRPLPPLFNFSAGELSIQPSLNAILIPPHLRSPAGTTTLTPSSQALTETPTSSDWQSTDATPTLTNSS
# Chain of DOT1L (Q8TEK3 whole entry, species assumed): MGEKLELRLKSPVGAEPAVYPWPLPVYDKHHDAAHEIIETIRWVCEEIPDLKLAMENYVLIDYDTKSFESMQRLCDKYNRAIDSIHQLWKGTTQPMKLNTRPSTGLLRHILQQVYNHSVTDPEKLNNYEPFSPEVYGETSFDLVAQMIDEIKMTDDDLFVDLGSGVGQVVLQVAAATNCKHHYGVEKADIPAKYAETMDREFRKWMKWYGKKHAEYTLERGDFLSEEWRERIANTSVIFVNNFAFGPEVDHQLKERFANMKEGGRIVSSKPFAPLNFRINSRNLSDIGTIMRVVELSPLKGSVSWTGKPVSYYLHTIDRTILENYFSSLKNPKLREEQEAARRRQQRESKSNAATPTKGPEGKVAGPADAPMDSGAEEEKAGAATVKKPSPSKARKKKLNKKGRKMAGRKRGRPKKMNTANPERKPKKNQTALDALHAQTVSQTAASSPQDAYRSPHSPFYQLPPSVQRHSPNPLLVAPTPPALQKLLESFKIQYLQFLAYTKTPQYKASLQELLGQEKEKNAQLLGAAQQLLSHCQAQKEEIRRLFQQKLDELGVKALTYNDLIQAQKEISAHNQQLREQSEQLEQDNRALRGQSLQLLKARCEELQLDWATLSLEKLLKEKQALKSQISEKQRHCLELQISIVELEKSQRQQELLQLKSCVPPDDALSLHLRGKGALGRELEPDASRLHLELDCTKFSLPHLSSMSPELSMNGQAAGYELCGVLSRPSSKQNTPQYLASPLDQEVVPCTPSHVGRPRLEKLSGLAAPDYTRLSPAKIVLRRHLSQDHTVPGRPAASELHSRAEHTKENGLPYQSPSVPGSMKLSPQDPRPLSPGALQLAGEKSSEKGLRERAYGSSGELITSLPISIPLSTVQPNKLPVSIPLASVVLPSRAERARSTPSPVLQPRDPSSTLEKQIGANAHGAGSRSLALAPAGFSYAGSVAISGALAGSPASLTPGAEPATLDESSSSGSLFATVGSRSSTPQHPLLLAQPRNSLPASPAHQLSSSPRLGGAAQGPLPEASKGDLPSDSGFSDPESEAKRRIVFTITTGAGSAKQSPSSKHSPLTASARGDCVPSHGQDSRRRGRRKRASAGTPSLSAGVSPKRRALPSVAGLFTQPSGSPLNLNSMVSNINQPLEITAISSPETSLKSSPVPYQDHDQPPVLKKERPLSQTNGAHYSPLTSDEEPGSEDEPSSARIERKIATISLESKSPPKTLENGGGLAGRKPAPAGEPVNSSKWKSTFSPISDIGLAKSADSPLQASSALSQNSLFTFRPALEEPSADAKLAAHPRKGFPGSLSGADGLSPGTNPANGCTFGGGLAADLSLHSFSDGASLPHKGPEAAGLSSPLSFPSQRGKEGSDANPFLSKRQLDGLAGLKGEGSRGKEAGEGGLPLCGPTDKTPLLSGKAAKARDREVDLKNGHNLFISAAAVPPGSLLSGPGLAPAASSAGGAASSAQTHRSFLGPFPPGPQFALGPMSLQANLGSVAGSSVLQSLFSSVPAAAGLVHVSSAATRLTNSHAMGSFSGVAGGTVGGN
smiles,measurement,setting,value
N#Cc1ccc2[nH]c(O)c(-c3ccc(CN4CCOCC4)cn3)c2c1 [AZD 1080],IC50,GSK-3 alpha,0.0069 µM
"CS(=O)(=O)c1ccc(-c2cnc(NCc3ccco3)n3cnnc23)cc1 [EED226, reference compound]",Lgr5+ Assay,"[1]; Table 7, result in words",Active
CC(C)N(CCCNC(=O)Nc1ccc(C(C)(C)C)cc1)C[C@H]1O[C@@H](n2ccc3c(N)ncnc32)[C@H](O)[C@@H]1O [EPZ004777],Human In Vivo Conc,[2],0.1 to 45 µM
Cc1ccc(-n2cnc(N)c2C(=O)c2ccccc2)cc1 [FHZ-000706],"Lgr5 GFP(+) cell area (enrichment), FIG. 3B",[1]; [4],does not enrich
same,"Lgr5 GFP(+) cell area (proliferation), FIG. 3A",[1]; [4],does not proliferate
same,"Lgr5 GFP(+) cell area (proliferation), FIG. 4A",[1]; [5],enhances
same,"Lgr5 GFP(+) cell area percentage (enrichment), FIG. 4B",[1]; [5],enhances
same,Lgr5+ Assay,[1]; [6],1 to 100 µM
same,enrichment of Lgr5+ progenitor cells,[3],enriched
same,proliferation of Lgr5+ progenitor cells,[3],proliferate
same,enrichment of cochlear progenitor cells,[3]; [7],does not promote
same,proliferation of cochlear progenitor cells,[3]; [7],does not promote
O=C(O)c1ccc(CN2CCC(CN[C@@H]3C[C@H]3c3ccccc3)CC2)cc1 [GSK-2879552],IC50,KDM1b,20 µM
c1ccc([C@@H]2C[C@H]2NC2CCNCC2)cc1 [GSK-LSD1],Lgr5+ Assay,"[1]; Table 9, with <= the upper end of a range printed over two lines",≤ 50 µM
"C=CCNc1nc(N)c(C(=O)c2ccc(Cl)s2)s1 [IBS008738, reference compound]","Lgr5 GFP(+) cell count (progenitor cell proliferation), FIG. 1A","[1]; 10 μM IBS008738 + 4 μM CHIR99021 in growth factors (50 ng/mL EGF, bFGF, IGR1) versus EFI-C or EFI-CV controls",enhances
same,"Lgr5 GFP(+) cell proliferation percentage (enrichment), FIG. 1B",[1]; 10 μM IBS008738 + 4 μM CHIR99021 in growth factors versus EFI-C or EFI-CV controls,enhances
same,"Lgr5 GFP(+) cell count (progenitor cell proliferation), FIG. 2A",[1]; [8],does not enhance
same,"Lgr5 GFP(+) cell proliferation percentage (enrichment), FIG. 2B",[1]; [8],enhances
same,Lgr5+ Assay,[1]; [6],1.1 to 30 µM
same,enrichment of Lgr5+ progenitor cells,[3],enriched
same,proliferation of Lgr5+ progenitor cells,[3],proliferate
"O=C1NC(=O)C(c2cnc3ccccn23)=C1c1cn2c3c(cc(F)cc13)CN(C(=O)N1CCCCC1)CC2 [LY2090314, 3-(9-fluoro-2-(piperidine-1-carbonyl)-1,2,3,4-tetrahydro-[1,4]diazepino[6,7,1-hi]indol-7-yl)-4-(imidazo[1,2-a]pyridin-3-yl)-1H-pyrrole-2,5-dione]",IC50,GSK-3 alpha,0.0021 µM
O=C([O-])CCCc1ccccc1.[Na+] [Na phenylbutyrate],Class selectivity,"HDAC; Table 5, HDAC class",Class I >
same,IC50,"HDAC; Table 5, HDAC Inhib 1, 2, 3, 8, kind of potency not given, read-out: HDAC Potene",9 to 16 µM
CC(C)N(CCCNC(=O)Nc1ccc(C(C)(C)C)cc1)C[C@H]1O[C@@H](n2cc(Br)c3c(N)ncnc32)[C@H](O)[C@@H]1O [SGC0946],Lgr5+ Assay,"[1]; concentration range, Table 8",0.6 to 5 µM
same,Human In Vivo Conc,[2],0.1-5 μM uM
same,Lit Cell,DOT1L,10 mM
N[C@@H]1C[C@H]1c1ccccc1 [TCP],Cmax,"[2]; Table 9, in brackets under the ng/mL range, read-out: Human Plasma Conc.: Cmax",225 to 1500 nM
same,Human Plasma Conc.: Cmax,[2]; Table 9,30-200 ng/ml ng/mL
CCCCc1nc2cc(-c3cccnc3)c(C)nc2n1Cc1ccc(-c2ccccc2-c2nn[nH]n2)cc1 [TM-25659],Lit Cell,TAZ,10 to 100 µM
C=CCNc1nc(N)c(C(=O)c2ccc(F)s2)s1 [TT10],Lit Cell,TAZ,1 µM
"CCCc1cc(C)[nH]c(=O)c1CNC(=O)c1cc(-c2ccc(N3CCN(C(C)C)CC3)nc2)cc2c1cnn2C(C)C [UN C1999, reference compound]",Lgr5+ Assay,"[1]; Table 7, result in words",Active
CC(C)N(C[C@H]1O[C@@H](n2cnc3c(N)ncnc32)[C@H](O)[C@@H]1O)[C@H]1C[C@@H](CCc2nc3cc(C(C)(C)C)ccc3[nH]2)C1 [pinometostat],Human In Vivo Conc: Total plasma Css,"[2]; Table 8, in brackets under the ng/mL range",(1.42-2.94 uM)
same,Human In Vivo Conc,[2],(1-10 uM)
